Assays:
Experiment in all cases: relative viability (nuclei count vs DMSO), 5 days (fraction); higher = more cells survive
A-427 = tested on: A-427
Summary of the method: (§1)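 Relative viability equals treated-well nuclei counts divided by vehicle-well nuclei counts. Counts came from 4× images of lung cancer cell lines grown in 1536-well plates for 5 days after pin-tool dosing on the day after seeding. Dosing used one drug alone or a fixed anchor-drug dose plus five library-drug doses (not always all listed) in √10 steps, and values are medians of duplicate plates.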

A549 = tested on: A549
Summary of the method: as §1

CAL-12T = tested on: CAL-12T
Summary of the method: as §1

Calu-6 = tested on: Calu-6
Summary of the method: as §1

EBC-1 = tested on: EBC-1
Summary of the method: as §1

IA-LM = tested on: IA-LM
Summary of the method: as §1

LK-2 = tested on: LK-2
Summary of the method: as §1

NCI-H1299 = tested on: NCI-H1299
Summary of the method: as §1

NCI-H1703 = tested on: NCI-H1703
Summary of the method: as §1

NCI-H1734 = tested on: NCI-H1734
Summary of the method: as §1

NCI-H2009 = tested on: NCI-H2009
Summary of the method: as §1

UMC-11 = tested on: UMC-11
Summary of the method: as §1

NCI-H1650 = tested on: NCI-H1650
Summary of the method: as §1

CCN(CC)CCCCNc1ncc2cc(-c3cc(OC)cc(OC)c3)c(NC(=O)NC(C)(C)C)nc2n1 + Cc1nc(NC(=O)N2CCC[C@H]2C(N)=O)sc1-c1ccnc(C(C)(C)C(F)(F)F)c1 [Alpelisib] (partner 2 µM)
relative viability (A-427; first compound 0.01 µM): 1.08
relative viability (A-427; first compound 0.03162 µM): 1.08
relative viability (A-427; first compound 0.1 µM): 1.1
relative viability (A-427; first compound 0.3162 µM): 1.1
relative viability (A-427; first compound 1 µM): 0.903
relative viability (A549; first compound 0.01 µM): 0.726
relative viability (A549; first compound 0.03162 µM): 0.801
relative viability (A549; first compound 0.1 µM): 0.985
relative viability (A549; first compound 0.3162 µM): 0.828
relative viability (A549; first compound 1 µM): 0.57
relative viability (CAL-12T; first compound 0.01 µM): 1.35
relative viability (CAL-12T; first compound 0.03162 µM): 1.24
relative viability (CAL-12T; first compound 0.1 µM): 1.14
relative viability (CAL-12T; first compound 0.3162 µM): 1.49
relative viability (CAL-12T; first compound 1 µM): 0.902
relative viability (Calu-6; first compound 0.01 µM): 1
relative viability (Calu-6; first compound 0.03162 µM): 0.996
relative viability (Calu-6; first compound 0.1 µM): 0.868
relative viability (Calu-6; first compound 0.3162 µM): 1.09
relative viability (Calu-6; first compound 1 µM): 1.01
relative viability (EBC-1; first compound 0.01 µM): 0.831
relative viability (EBC-1; first compound 0.03162 µM): 0.887
relative viability (EBC-1; first compound 0.1 µM): 0.965
relative viability (EBC-1; first compound 0.3162 µM): 0.918
relative viability (EBC-1; first compound 1 µM): 0.664
relative viability (IA-LM; first compound 0.01 µM): 0.62
relative viability (IA-LM; first compound 0.03162 µM): 0.659
relative viability (IA-LM; first compound 0.1 µM): 0.672
relative viability (IA-LM; first compound 0.3162 µM): 0.836
relative viability (IA-LM; first compound 1 µM): 0.597
relative viability (LK-2; first compound 0.01 µM): 0.679
relative viability (LK-2; first compound 0.03162 µM): 0.891
relative viability (LK-2; first compound 0.1 µM): 0.848
relative viability (LK-2; first compound 0.3162 µM): 0.6
relative viability (LK-2; first compound 1 µM): 0.301
relative viability (NCI-H1299; first compound 0.01 µM): 1.12
relative viability (NCI-H1299; first compound 0.03162 µM): 1.12
relative viability (NCI-H1299; first compound 0.1 µM): 1.08
relative viability (NCI-H1299; first compound 0.3162 µM): 1.04
relative viability (NCI-H1299; first compound 1 µM): 1.04
relative viability (NCI-H1703; first compound 0.01 µM): 0.262
relative viability (NCI-H1703; first compound 0.1 µM): 0.397
relative viability (NCI-H1703; first compound 0.3162 µM): 0.45
relative viability (NCI-H1703; first compound 1 µM): 0.292
relative viability (NCI-H1734; first compound 0.01 µM): 0.728
relative viability (NCI-H1734; first compound 0.03162 µM): 0.69
relative viability (NCI-H1734; first compound 0.1 µM): 0.713
relative viability (NCI-H1734; first compound 0.3162 µM): 0.707
relative viability (NCI-H1734; first compound 1 µM): 0.708
relative viability (NCI-H2009; first compound 0.01 µM): 1.15
relative viability (NCI-H2009; first compound 0.03162 µM): 1.14
relative viability (NCI-H2009; first compound 0.1 µM): 1.24
relative viability (NCI-H2009; first compound 0.3162 µM): 1.18
relative viability (NCI-H2009; first compound 1 µM): 1.16
relative viability (UMC-11; first compound 0.01 µM): 1.08
relative viability (UMC-11; first compound 0.03162 µM): 0.921
relative viability (UMC-11; first compound 0.1 µM): 1.02
relative viability (UMC-11; first compound 0.3162 µM): 1.17
relative viability (UMC-11; first compound 1 µM): 0.88

COc1nc(C)cnc1NS(=O)(=O)c1cccnc1-c1ccc(-c2nnco2)cc1 [Zibotentan] + CC(C)C[C@H](NC(=O)[C@H](Cc1ccccc1)NC(=O)c1cnccn1)B(O)O [Bortezomib] (partner 0.002 µM)
relative viability (A-427; first compound 0.08 µM): 1.05
relative viability (A-427; first compound 0.253 µM): 1.06
relative viability (A-427; first compound 0.8 µM): 1.02
relative viability (A-427; first compound 2.53 µM): 1.01
relative viability (CAL-12T; first compound 0.08 µM): 0.941
relative viability (CAL-12T; first compound 0.8 µM): 1.01
relative viability (CAL-12T; first compound 2.53 µM): 1.01
relative viability (Calu-6; first compound 0.08 µM): 0.929
relative viability (Calu-6; first compound 0.253 µM): 0.888
relative viability (Calu-6; first compound 0.8 µM): 1.02
relative viability (Calu-6; first compound 2.53 µM): 1.06
relative viability (EBC-1; first compound 0.08 µM): 0.704
relative viability (EBC-1; first compound 0.253 µM): 0.566
relative viability (EBC-1; first compound 0.8 µM): 0.584
relative viability (EBC-1; first compound 2.53 µM): 0.592
relative viability (IA-LM; first compound 0.08 µM): 0.791
relative viability (IA-LM; first compound 0.253 µM): 0.758
relative viability (IA-LM; first compound 0.8 µM): 0.709
relative viability (IA-LM; first compound 2.53 µM): 0.828
relative viability (NCI-H1299; first compound 0.08 µM): 0.999
relative viability (NCI-H1299; first compound 0.253 µM): 0.998
relative viability (NCI-H1299; first compound 0.8 µM): 0.965
relative viability (NCI-H1299; first compound 2.53 µM): 1.08
relative viability (NCI-H1650; first compound 0.08 µM): 0.209
relative viability (NCI-H1650; first compound 0.8 µM): 0.198
relative viability (NCI-H1650; first compound 2.53 µM): 0.194
relative viability (NCI-H1703; first compound 0.08 µM): 0.512
relative viability (NCI-H1703; first compound 0.253 µM): 0.372
relative viability (NCI-H1703; first compound 0.8 µM): 0.38
relative viability (NCI-H1703; first compound 2.53 µM): 0.346
relative viability (NCI-H1734; first compound 0.08 µM): 1.1
relative viability (NCI-H1734; first compound 0.253 µM): 0.894
relative viability (NCI-H1734; first compound 0.8 µM): 0.972
relative viability (NCI-H1734; first compound 2.53 µM): 1
relative viability (NCI-H2009; first compound 0.08 µM): 1.04
relative viability (NCI-H2009; first compound 0.253 µM): 0.973
relative viability (NCI-H2009; first compound 0.8 µM): 1.11
relative viability (NCI-H2009; first compound 2.53 µM): 1.12
relative viability (UMC-11; first compound 0.08 µM): 0.601
relative viability (UMC-11; first compound 0.253 µM): 0.623
relative viability (UMC-11; first compound 0.8 µM): 0.668
relative viability (UMC-11; first compound 2.53 µM): 0.909

O=c1cc(-c2cccc3c2Sc2ccccc2S3)oc(N2CCOCC2)c1 + Cc1nc(NC(=O)N2CCC[C@H]2C(N)=O)sc1-c1ccnc(C(C)(C)C(F)(F)F)c1 [Alpelisib] (partner 2 µM)
relative viability (A-427; first compound 0.08 µM): 1.04
relative viability (A-427; first compound 0.253 µM): 1.04
relative viability (A-427; first compound 0.8 µM): 1.14
relative viability (A-427; first compound 2.53 µM): 0.987
relative viability (A-427; first compound 8 µM): 1.05
relative viability (A549; first compound 0.08 µM): 0.738
relative viability (A549; first compound 0.253 µM): 0.958
relative viability (A549; first compound 0.8 µM): 0.857
relative viability (A549; first compound 2.53 µM): 0.659
relative viability (A549; first compound 8 µM): 0.653
relative viability (CAL-12T; first compound 0.08 µM): 1.17
relative viability (CAL-12T; first compound 0.253 µM): 1.28
relative viability (CAL-12T; first compound 0.8 µM): 1.56
relative viability (CAL-12T; first compound 2.53 µM): 1.1
relative viability (CAL-12T; first compound 8 µM): 0.724
relative viability (Calu-6; first compound 0.08 µM): 0.841
relative viability (Calu-6; first compound 0.253 µM): 1.12
relative viability (Calu-6; first compound 0.8 µM): 1
relative viability (Calu-6; first compound 2.53 µM): 0.923
relative viability (Calu-6; first compound 8 µM): 1.06
relative viability (EBC-1; first compound 0.08 µM): 0.792
relative viability (EBC-1; first compound 0.253 µM): 1.03
relative viability (EBC-1; first compound 0.8 µM): 0.816
relative viability (EBC-1; first compound 2.53 µM): 0.755
relative viability (EBC-1; first compound 8 µM): 0.522
relative viability (IA-LM; first compound 0.08 µM): 0.664
relative viability (IA-LM; first compound 0.253 µM): 1.06
relative viability (IA-LM; first compound 0.8 µM): 0.852
relative viability (IA-LM; first compound 2.53 µM): 0.862
relative viability (IA-LM; first compound 8 µM): 0.677
relative viability (LK-2; first compound 0.08 µM): 1.22
relative viability (LK-2; first compound 0.253 µM): 1.11
relative viability (LK-2; first compound 0.8 µM): 1.49
relative viability (LK-2; first compound 2.53 µM): 0.995
relative viability (LK-2; first compound 8 µM): 1.75
relative viability (NCI-H1299; first compound 0.08 µM): 1.03
relative viability (NCI-H1299; first compound 0.253 µM): 1.09
relative viability (NCI-H1299; first compound 0.8 µM): 1.13
relative viability (NCI-H1299; first compound 2.53 µM): 1.03
relative viability (NCI-H1299; first compound 8 µM): 1.08
relative viability (NCI-H1703; first compound 0.253 µM): 0.459
relative viability (NCI-H1703; first compound 0.8 µM): 0.296
relative viability (NCI-H1703; first compound 2.53 µM): 0.245
relative viability (NCI-H1703; first compound 8 µM): 0.295
relative viability (NCI-H1734; first compound 0.08 µM): 0.595
relative viability (NCI-H1734; first compound 0.253 µM): 0.841
relative viability (NCI-H1734; first compound 0.8 µM): 0.729
relative viability (NCI-H1734; first compound 2.53 µM): 0.662
relative viability (NCI-H1734; first compound 8 µM): 0.706
relative viability (NCI-H2009; first compound 0.08 µM): 1.18
relative viability (NCI-H2009; first compound 0.253 µM): 1.27
relative viability (NCI-H2009; first compound 0.8 µM): 1.18
relative viability (NCI-H2009; first compound 2.53 µM): 1.14
relative viability (NCI-H2009; first compound 8 µM): 0.811
relative viability (UMC-11; first compound 0.08 µM): 0.965
relative viability (UMC-11; first compound 0.253 µM): 1.35
relative viability (UMC-11; first compound 0.8 µM): 1.17
relative viability (UMC-11; first compound 2.53 µM): 0.98
relative viability (UMC-11; first compound 8 µM): 1.42

— the supplement of paper PMC10307832
